Assay results: patent US10532109B2, “Peptide-DNA chimeras for treatment of HER overexpressing cancers” (ARIZONA BOARD OF REGENTS ON BEHALF OF ARIZONA STATE …, priority 2016, dated 2020)
“Also recorded” adds a separate entry of the source. Like-named read-outs stand apart in the source and are kept apart here.

Assays:
[1] = test system: BT474 human breast cancer cells (overexpression of HER2); test: Cancer cell inhibition assay (MTT), BT474; format: cell-based; conditions: for inhibition at 0.32 µM: BT-474, 320 nM doxorubicin, free or as 6.4 nM IV (1:50 III-doxorubicin); for inhibition at 0.32 µM / inhibition at 0.64 µM: read-out: inhibition of BT474 cell growth; for inhibition at 0.64 µM: BT-474, 640 nM doxorubicin, free or as 12.8 nM IV
Procedure: Exponentially growing BT474 cells and MDA-MB-231 cells were harvested and plated in 96-well plates at a concentration of 2×10^4 cells/well for BT474 cells and 5×10^4 cells/well for MDA-MB231 cells. […] Then 20 μL of MTT (5 mg/mL) was added to each well and the plates were incubated at 37° C. for 4 hours. The supernatant was discarded, and 100 μL of DMSO was added to each well. The absorbance was recorded at 490 nm after 15 minutes. Inhibition of cell growth was obtained by the following formula: Inhibition (%)=(ODTreatment−ODbackground)/(ODNagative control−ODbackground)×100%

[2] = test system: MDA-MB-231 human breast cancer cells (low expression of HER2 receptor); test: Cancer cell inhibition assay (MTT), MDA-MB-231; format: cell-based; conditions: 48, 72, 96 h
Procedure: BT474 human breast cancer cells (ATCC® HTB-20™, overexpression of HER2) and MDA-MB-231 human breast cancer cells (ATCC® HTB-26™, low expression of HER2 receptor) were cultured at 37° C. in a 5% CO2 atmosphere and grown in Gibco® RPMI 1640 medium supplemented with 10% fetal bovine serum (FBS) and 1% antibiotic-antimycotic mix antibiotic supplement before use.
Exponentially growing BT474 cells and MDA-MB-231 cells were harvested and plated in 96-well plates at a concentration of 2×10^4 cells/well for BT474 cells and 5×10^4 cells/well for MDA-MB231 cells. […] Then 20 μL of MTT (5 mg/mL) was added to each well and the plates were incubated at 37° C. for 4 hours. The supernatant was discarded, and 100 μL of DMSO was added to each well. The absorbance was recorded at 490 nm after 15 minutes. Inhibition of cell growth was obtained by the following formula: […]
Data are reported as the mean of three independent experiments, each run in quintuplicate.

BT474 cells = test: HER2 binding assay (fluorescence microscopy), BT474; format: cell-based, human; conditions: 1 μM; 1 hour
Procedure: (§1) BT474 cells and MDA-MB-231 cells were grown on glass bottom microwell disks at a cell density of approximately 10,000 cells/well at 37° C. for 48 hours. […] Then the cells were stained using 2.5 μg/mL DAPI (Invitrogen) for 30 minutes after the cells were rinsed with phosphate buffered saline (PBS) for two times. Finally, the cells were fixed with 4% paraformaldehyde for 10 minutes. The fluorescent images were obtained using a fluorescence microscope (Nikon Ti-U, Japan) with red and green filters. Thereafter, all images were recorded and the target cells counted using a 40× oil objective. To ensure accurate intensity measurements, the exposure time (3000 ms) and laser time were kept the same. The mean pixel intensity within the region of interest was calculated. Data are reported as the mean of three independent experiments, each run in quintuplicate. The data was expressed as mean±SD.

MDA-MB-231 cells = test: HER2 binding assay (fluorescence microscopy), MDA-MB-231; format: cell-based, human; conditions: 1 μM; 1 hour
Procedure: as §1

COc1cccc2c1C(=O)c1c(O)c3c(c(O)c1C2=O)C[C@@](O)(C(=O)CO)C[C@@H]3O[C@H]1C[C@H](N)[C@H](O)[C@H](C)O1 [doxorubicin]
inhibition at 0.32 µM ([1]; 48 h): 19% | inhibition at 0.32 µM ([1]; 72 h): 43% | inhibition at 0.32 µM ([1]; 96 h): 44% | inhibition at 0.64 µM ([1]; 48 h): 36% | inhibition at 0.64 µM ([1]; 72 h): 68% | inhibition at 0.64 µM ([1]; 96 h): 78% | inhibition at 0.16 µM ([1]; BT-474, read-out: average inhibition of BT474 cell growth): 10% | fold higher average percent inhibition of MDA-MB-231 by doxorubicin than IV ([2]; 160 nM doxorubicin concentration): 1.0-2.3 fold | fold higher average percent inhibition of MDA-MB-231 by doxorubicin than IV ([2]; 320 nM doxorubicin concentration): 1.3-2.0 fold | fold higher average percent inhibition of MDA-MB-231 by doxorubicin than IV ([2]; 640 nM doxorubicin concentration): 1.6-2.0 fold | binding ability to BT474 cells (fluorescence on cell surface, in words) (BT474 cells): relatively weak fluorescence intensity; also recorded: relatively weak ability | binding selectivity between BT474 and MDA-MB-231 cells (BT474 cells): did not show any binding selectivity; also recorded: did not shown any selectivity | binding ability to MDA-MB-231 cells (fluorescence on cell surface, in words) (MDA-MB-231 cells): relatively weak fluorescence intensity; also recorded: relatively weak ability
